Assay results taken from US20250122225A1, “MASP-2 INHIBITORS AND METHODS OF USE” (Omeros Corporation, priority 2023, published 2025).
Structures can show the parent of a compound that is named as a salt.

How the values were obtained:
[1] = target: T1, MASP-2 (CCP1-CCP2-SP) (Homo sapiens, UniProt O00187); test: Enzymatic assay for MASP-2 inhibitory activity (fluorogenic substrate); format: biochemical
T1 construct: 15 μL of Enzyme MASP-2 (CCP1-CCP2-SP) in Assay Buffer
Outline: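 Fluorescence was normalized between no-enzyme and DMSO-only controls to derive % activity, with IC50 taken as equivalent to Ki except for tight-binding inhibitors. Reactions ran 20 min at room temperature in HEPES pH 7.4/NaCl/Tween 20 buffer, using the C2-derived fluorogenic substrate, before acetic acid stop.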

[2] = target: T2, human α-thrombin (Homo sapiens, UniProt P00734); test: Enzymatic assay for thrombin (fluorogenic peptide substrate Boc-VPR-AMC); format: biochemical
T2 construct: enzyme (human α-thrombin (BioPharm® Lab.)) in assay buffer; purchased BioPharm® Lab
Outline: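 Assay conditions kept the reaction linear in time, enzyme and substrate, so IC50 approximated Ki apart from tight- or slow-binding cases. Boc-VPR-AMC cleavage by human α-thrombin proceeded 20 min at room temperature in Hepes pH 7.4/NaCl/Tween 20 buffer, then was acid-quenched and read by fluorescence.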

T1 sequence (O00187 445-686 limits assumed): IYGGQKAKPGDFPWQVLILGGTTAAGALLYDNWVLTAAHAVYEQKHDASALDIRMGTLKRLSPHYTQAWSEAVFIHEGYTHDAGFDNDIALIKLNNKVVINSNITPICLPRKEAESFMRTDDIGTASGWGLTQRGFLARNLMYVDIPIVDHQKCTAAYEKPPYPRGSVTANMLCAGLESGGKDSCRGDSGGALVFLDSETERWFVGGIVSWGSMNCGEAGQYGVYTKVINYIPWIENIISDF
T1 sequence (O00187 287-444 partner limits assumed): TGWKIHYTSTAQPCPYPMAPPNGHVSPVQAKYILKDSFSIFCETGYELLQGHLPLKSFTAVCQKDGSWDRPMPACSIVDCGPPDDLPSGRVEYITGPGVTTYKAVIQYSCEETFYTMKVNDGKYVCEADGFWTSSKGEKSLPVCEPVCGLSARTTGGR

Work on `O=C(NCc1cc2c(s1)CNC2)[C@@H]1CCc2cnc(N[C@@H]3CCc4ccccc43)c(=O)n21` [Compound 254, (S)-3-(((R)-2,3-dihydro-1H-inden-1-yl)amino)-N-((5,6-dihydro-4H-thieno[2,3-c]pyrrol-2-yl)methyl)-4-oxo-4,6,7,8-tetrahydropyrrolo[1,2-a]pyrazine-6-carboxamide] yielded a Ki [1] of under 500 nM and a Ki [2] of 500 to 2500 nM.

In the case of `CC(C)[C@@H](Nc1ncc2n(c1=O)[C@H](C(=O)NCc1cc3c(s1)CNC3)CC2)c1ccccc1` [Compound 255], the Ki [1] is reported as under 500 nM and the Ki [2] is reported as under 500 nM.

Work on `O=C(NCc1cc2c(s1)CNC2)[C@@H]1CCc2cnc(N[C@@H](c3ccccc3)C3CCC3)c(=O)n21` [Compound 256] yielded a Ki [1] of under 500 nM and a Ki [2] of under 500 nM.

`CCC[C@@H](Nc1ncc2n(c1=O)[C@H](C(=O)NCc1cc3c(s1)CNC3)CC2)c1ccccc1` [Compound 258] showed a Ki [1] of under 500 nM and a Ki [2] of under 500 nM.

In the case of `O=C(NCc1cc2c(s1)CNC2)[C@@H]1CCc2cnc(N[C@@H]3CCc4ccc(-c5ccccc5)cc43)c(=O)n21` [Compound 260, (S)-N-((5,6-dihydro-4H-thieno[2,3-c]pyrrol-2-yl)methyl)-4-oxo-3-(((R)-6-phenyl-2,3-dihydro-1H-inden-1-yl)amino)-4,6,7,8-tetrahydropyrrolo[1,2-a]pyrazine-6-carboxamide trifluoroacetate], the Ki [1] is reported as under 500 nM and the Ki [2] is reported as 2500 to 10000 nM.

Molecule `O=C(NCc1cc2c(s1)CNC2)[C@@H]1CCc2cnc(NC3(c4ccccc4)CCC3)c(=O)n21` [Compound 261, (S)-N-((5,6-dihydro-4H-thieno[2,3-c]pyrrol-2-yl)methyl)-4-oxo-3-((1-phenylcyclobutyl)amino)-4,6,7,8-tetrahydropyrrolo[1,2-a]pyrazine-6-carboxamide trifluoroacetate] has a Ki [1] of under 500 nM and a Ki [2] of under 500 nM.

Molecule `CCc1cc(CNc2ncc3n(c2=O)[C@H](C(=O)NCc2cc4c(s2)CNC4)CC3)cc(-c2ccccc2)c1` [Compound 262] has a Ki [1] of under 500 nM and a Ki [2] of 500 to 2500 nM.

`CC[C@@H](Nc1ncc2n(c1=O)[C@H](C(=O)NCc1cc3c(s1)CNC3)CC2)c1ccc2ccccc2c1` [Compound 263, (S)-N-((5,6-dihydro-4H-thieno[2,3-c]pyrrol-2-yl)methyl)-3-(((R)-1-(naphthalen-2-yl)propyl)amino)-4-oxo-4,6,7,8-tetrahydropyrrolo[1,2-a]pyrazine-6-carboxamide trifluoroacetate] gave a Ki [1] of under 500 nM and a Ki [2] of 500 to 2500 nM.

In the case of `CC(C)(C)[C@@H](Nc1ncc2n(c1=O)[C@H](C(=O)NCc1cc3c(s1)CNC3)CC2)c1ccccc1` [Compound 264, (S)-N-((5,6-dihydro-4H-thieno[2,3-c]pyrrol-2-yl)methyl)-3-(((R)-2,2-dimethyl-1-phenylpropyl)amino)-4-oxo-4,6,7,8-tetrahydropyrrolo[1,2-a]pyrazine-6-carboxamide trifluoroacetate], the Ki [1] is reported as under 500 nM and the Ki [2] is reported as under 500 nM.

Molecule `CC[C@@H](Nc1ncc2n(c1=O)[C@H](C(=O)NCc1cc3c(s1)CNC3)CC2)c1ccccc1C` [Compound 265, (S)-N-((5,6-dihydro-4H-thieno[2,3-c]pyrrol-2-yl)methyl)-4-oxo-3-(((R)-1-(o-tolyl)propyl)amino)-4,6,7,8-tetrahydropyrrolo[1,2-a]pyrazine-6-carboxamide trifluoroacetate] has a Ki [1] of under 500 nM and a Ki [2] of under 500 nM.

Molecule `CC[C@@H](Nc1ncc2n(c1=O)[C@H](C(=O)NCc1cc3c(s1)CNC3)CC2)c1ccc(C)cc1` [Compound 266, (S)-N-((5,6-dihydro-4H-thieno[2,3-c]pyrrol-2-yl)methyl)-4-oxo-3-(((R)-1-(p-tolyl)propyl)amino)-4,6,7,8-tetrahydropyrrolo[1,2-a]pyrazine-6-carboxamide trifluoroacetate] has a Ki [1] of under 500 nM and a Ki [2] of under 500 nM.
